Source: patent publication US9394284B2, “Compounds act at multiple prostaglandin receptors giving a general anti-inflammatory response” (Allergan, Inc., priority 2010, dated 2016)

Key:
Format in all cases: cell-based
[1] = target: T1, human prostanoid EP1 receptor (Homo sapiens, UniProt P34995); test: FLIPR Ca2+ signaling antagonist assay, EP1 receptor stable cell line; details: HEK-293 EBNA stable cell line; standard agonist PGE2; NA = inactive (no antagonism or Kb 10,000 nM); PAg, Ag not defined
T1 construct: expressed in transfected cells
T1 sequence (P34995 1-402): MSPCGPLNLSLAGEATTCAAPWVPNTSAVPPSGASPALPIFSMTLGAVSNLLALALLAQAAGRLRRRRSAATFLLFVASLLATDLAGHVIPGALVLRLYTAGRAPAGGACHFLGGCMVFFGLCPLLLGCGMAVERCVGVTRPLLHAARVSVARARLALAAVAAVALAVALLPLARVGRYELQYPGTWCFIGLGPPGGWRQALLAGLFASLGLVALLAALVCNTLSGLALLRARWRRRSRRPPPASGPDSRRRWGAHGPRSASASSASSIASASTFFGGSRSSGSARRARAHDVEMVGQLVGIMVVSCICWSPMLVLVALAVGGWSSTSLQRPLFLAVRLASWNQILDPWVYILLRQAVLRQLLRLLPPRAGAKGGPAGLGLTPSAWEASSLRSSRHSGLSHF
Protocol: (§1) The above compounds were tested for PG antagonist activity as follows using human recombinant prostanoid receptor (DP1, EP1-4, FP, IP and TP) stable cell lines:
(§2) In order to measure the response of Gs and Gi coupled prostanoid receptors as a Ca^2+ signal, chimeric G protein cDNAs were used. Stable cell lines over-expressing human prostanoid DP1, EP1-4, FP, IP, and TP receptors were established as follows:
(§3) Briefly, human prostanoid DP1, EP2, and EP4 receptor cDNAs were co-transfected with chimeric Gqs cDNA containing a haemagglutanin (HA) epitope; human prostanoid EP3 receptors were co-transfected with chimeric Gqi-HA; human EP1, FP, IP, and TP receptor cDNAs were expressed with no exogenous G-proteins. Gqs and Gqi chimeric cDNAs (Molecular Devices, Sunnyvale, Calif., U.S.A.), as well as cDNAs of prostanoid receptors, were cloned into a pCEP4 vector with a hygromycin B selection marker. Transfection into HEK-293 EBNA (Epstein-Barr virus nuclear antigen) cells was achieved by the FuGENE 6 transfection Reagent (Roche Applied Science, Indianapolis, Ind., USA). Stable transfectants were selected according to hygromycin resistance. Because Gqs and Gqi contained an HA epitope, G-protein expression was detected by Western blotting analysis using anti-mouse HA monoclonal antibody and horseradish peroxidase (HRP)-conjugated secondary antibody, while functional expression of prostanoid receptors was detected by FLIPR screening (Matias et al., 2004). These stable cell lines were validated using previously published antagonists at 10 μM against serial dilutions of standard agonists by FLIPR functional assays for Ca^2+ Signaling (as described below).
(§4) Ca^2+ signaling studies were performed using a FLIPR TETRA system (Molecular Devices, Sunnyvale, Calif., USA) in the 384-format. This is a high-throughput instrument for cell-based assays to monitor Ca^2+ signaling associated with GPCRs and ion channels. Cells were seeded at a density of 5×10^4 cells/well in BioCoat poly-D-lysine coated, black wall, clear bottom 384-well plates (BD Biosciences, Franklin lakes, NJ, USA) and allowed to attach overnight in an incubator at 37° C. The cells were then washed twice with HBSS-HEPES buffer (Hanks' balanced salt solution without bicarbonate and phenol red, 20 mM HEPES, pH 7.4) using an ELx405 Select CW Microplate Washer (BioTek, Winooski, Vt., USA). After 60 min of dye-loading in the dark using the Ca^2+-sensitive dye Fluo-4AM (Invitrogen, Carlsbad, Calif., USA), at a final concentration of 2×10^−6M, the plates were washed 4 times with HBSS-HEPES buffer to remove excess dye and leaving 50 μl of buffer in each well. The plates were then placed in the FLIPR TETRA instrument and allowed to equilibrate at 37° C. AGN-211377 was added in a 25 μl volume to each well to give final concentrations of 0.1 μM, 0.3 μM, 1 μM, 3 μM, 10 μM, and 30 μM; or 0.067 μM, 0.1 μM, 0.2 μM, 0.3 μM, 0.67 μM, and 1 μM for cells over-expressing TP receptors. After 4.5 minutes, a 7-point serial dilution of the standard agonist for the corresponding receptor, in a 25 μl volume was injected at the final concentrations from 10^−11M to 10^−5M in 10-fold serial dilution increments for cells expressing human recombinant DP1, EP1, EP2, EP3, EP4, FP, and IP receptors. The dose range for the standard agonist for human recombinant TP receptors was from 10^−12 M to 10^−6 M. HBSS-HEPES buffer was used as the negative control for the standard agonists. Cells were excited with LED (light emitting diode) excitation at 470-495 nm and emission was measured through an emission filter at 515-575 nm. Assay plates were read for 3.5 minutes using the FLIPR^TETRA. The peak increase in fluorescence intensity was recorded for each well. On each plate, negative controls, dose response of positive controls, and co-treatments of antagonist-agonist for each dose were in triplicates.
(§5) Standard agonists were as follows: DP=BW 245C, EP1-EP4=PGE2, FP=17-phenyl-PGF2α, IP=Cicaprost, and TP=U-46619. […]

[2] = target: T2, human prostanoid TP receptor (Homo sapiens, UniProt P21731); test: FLIPR Ca2+ signaling antagonist assay, TP receptor stable cell line; details: HEK-293 EBNA stable cell line; standard agonist U-46619; NA = inactive (no antagonism or Kb 10,000 nM); PAg, Ag not defined
T2 construct: expressed in transfected cells
T2 sequence (P21731 1-343): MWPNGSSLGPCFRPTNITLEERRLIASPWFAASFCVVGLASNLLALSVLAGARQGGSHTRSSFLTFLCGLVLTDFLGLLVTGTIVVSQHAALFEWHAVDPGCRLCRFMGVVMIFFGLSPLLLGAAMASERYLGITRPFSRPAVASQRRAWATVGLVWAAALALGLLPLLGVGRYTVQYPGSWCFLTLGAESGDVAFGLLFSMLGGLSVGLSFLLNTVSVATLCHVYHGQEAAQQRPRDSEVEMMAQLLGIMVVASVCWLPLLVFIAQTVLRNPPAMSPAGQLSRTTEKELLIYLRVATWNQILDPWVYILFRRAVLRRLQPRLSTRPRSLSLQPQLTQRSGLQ
Protocol: as §1, §2, §3, §4, §5

[3] = target: T3, human prostanoid FP receptor (Homo sapiens, UniProt P43088); test: FLIPR Ca2+ signaling antagonist assay, FP receptor stable cell line; details: HEK-293 EBNA stable cell line; standard agonist 17-phenyl-PGF2α; NA = inactive (no antagonism or Kb 10,000 nM); PAg, Ag not defined
T3 construct: expressed in transfected cells
T3 sequence (P43088 whole entry): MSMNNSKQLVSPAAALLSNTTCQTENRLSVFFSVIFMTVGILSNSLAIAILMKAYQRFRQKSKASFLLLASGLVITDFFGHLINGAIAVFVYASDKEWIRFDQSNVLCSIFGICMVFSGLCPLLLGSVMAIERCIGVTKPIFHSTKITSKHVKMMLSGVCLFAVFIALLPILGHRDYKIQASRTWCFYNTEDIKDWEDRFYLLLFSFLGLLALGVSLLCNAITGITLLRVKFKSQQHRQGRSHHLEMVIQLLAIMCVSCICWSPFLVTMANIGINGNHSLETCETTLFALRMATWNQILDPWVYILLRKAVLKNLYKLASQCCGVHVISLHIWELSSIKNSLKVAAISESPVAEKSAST
Protocol: as §1, §2, §3, §4, §5

[4] = target: T4, human prostanoid DP1 receptor (Homo sapiens, UniProt Q13258); test: FLIPR Ca2+ signaling antagonist assay, DP1 receptor stable cell line; details: HEK-293 EBNA stable cell line; standard agonist BW 245C; NA = inactive (no antagonism or Kb 10,000 nM); PAg, Ag not defined
T4 construct: expressed in transfected cells
T4 sequence (Q13258 1-359): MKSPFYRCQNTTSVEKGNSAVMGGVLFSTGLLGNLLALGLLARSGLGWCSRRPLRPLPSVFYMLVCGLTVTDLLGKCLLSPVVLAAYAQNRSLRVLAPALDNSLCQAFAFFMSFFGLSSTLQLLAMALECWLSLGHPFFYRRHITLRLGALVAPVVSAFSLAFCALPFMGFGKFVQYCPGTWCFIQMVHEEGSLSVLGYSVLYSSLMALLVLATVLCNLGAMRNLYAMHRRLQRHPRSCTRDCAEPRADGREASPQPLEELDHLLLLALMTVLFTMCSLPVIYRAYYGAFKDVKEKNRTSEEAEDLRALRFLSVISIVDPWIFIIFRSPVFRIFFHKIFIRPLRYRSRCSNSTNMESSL
Protocol: as §1, §2, §3, §4, §5

[5] = target: T5, human prostanoid EP4 receptor (Homo sapiens, UniProt P35408); test: FLIPR Ca2+ signaling antagonist assay, EP4 receptor stable cell line; details: HEK-293 EBNA stable cell line; standard agonist PGE2; NA = inactive (no antagonism or Kb 10,000 nM); PAg, Ag not defined
T5 construct: expressed in transfected cells
T5 sequence (P35408 whole entry): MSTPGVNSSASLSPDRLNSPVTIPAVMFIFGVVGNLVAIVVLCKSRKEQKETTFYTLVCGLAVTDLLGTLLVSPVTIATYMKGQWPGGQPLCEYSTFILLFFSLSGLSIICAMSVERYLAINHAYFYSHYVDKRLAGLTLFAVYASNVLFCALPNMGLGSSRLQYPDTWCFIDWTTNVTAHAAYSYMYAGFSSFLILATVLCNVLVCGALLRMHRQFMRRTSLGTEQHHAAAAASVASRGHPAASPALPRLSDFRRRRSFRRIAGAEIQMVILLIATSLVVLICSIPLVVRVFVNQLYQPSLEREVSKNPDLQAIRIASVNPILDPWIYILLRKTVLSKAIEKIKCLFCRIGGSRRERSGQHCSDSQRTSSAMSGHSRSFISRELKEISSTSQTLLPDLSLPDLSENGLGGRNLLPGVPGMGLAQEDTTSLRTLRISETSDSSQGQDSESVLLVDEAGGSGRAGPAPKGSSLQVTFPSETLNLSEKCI
Protocol: as §1, §2, §3, §4, §5

SMILES	Kb [1]	Kb [2]	Kb [3]	Kb [4]	Kb [5]
Cc1cc(CCC(=O)NS(=O)(=O)c2ccccc2)nn1Cc1cc(Cl)ccc1OCc1ccc(Cl)cc1Cl [Example 28, N-(3-[1-(5-Chloro-2-(2,4-dichlorobenzyloxy)benzyl)-5-methyl-1H-pyrazol-3-yl]-propionyl)benzenesulfonamide]	230 nM	540 nM			
Cc1cc(CCC(=O)O)nn1Cc1cc(Br)ccc1OCC1(C(F)(F)F)CCCC1 [Example 14, 3-[1-(5-Bromo-2-(1-trifluoromethylcyclopentylmethoxy)-benzyl)-5-methyl-1H-pyrazol-3-yl]-propionic acid]	180 nM	160 nM	1000 nM	400 nM	1900 nM
CCC(CC)COc1ccc(C(N)=O)cc1Cn1nc(CCC(=O)O)cc1C [Example 61, 3-{1-[5-Carbamoyl-2-(2-ethyl-butoxy)-benzyl]-5-methyl-1H-pyrazol-3-yl}-propionic acid]		1100 nM			800 nM
CCC(CC)COc1ccc(C(=O)O)cc1Cn1nc(CCC(=O)O)cc1C [Example 62, 3-{1-[5-Carboxy-2-(2-ethyl-butoxy)-benzyl]-5-methyl-1H-pyrazol-3-yl}-propionic acid]	2000 nM	3700 nM			
Cc1cc(CCC(=O)NS(=O)(=O)C(F)(F)F)nn1Cc1cc(Cl)ccc1OCC(C)C [Example 44, N-(3-[1-(5-Chloro-2-(2-methylpropyloxy)benzyl)-5-methyl-1H-pyrazol-3-yl]-propionyl)C,C,C-trifluoromethanesulfon amide]	14 nM	5 nM	500 nM	800 nM	500 nM
Cc1cc(CCC(=O)O)nn1Cc1cc(Cl)ccc1OCC1CCCO1 (centres unmarked) [Example 33, 3-[1-(5-Chloro-2-(tetrahydrofuran-2-yl-methoxy)benzyl)-5-methyl-1H-pyrazol-3-yl]-propionic acid]	800 nM	1000 nM	4000 nM		
COc1ccc(OCC2CC2)c(Cn2nc(CCC(=O)O)cc2C)c1 [Example 54, 3-[1-(2-Cyclopropylmethoxy-5-methoxy-benzyl)-5-methyl-1H-pyrazol-3-yl]-propionic acid]	560 nM	1200 nM	1000 nM	1700 nM	4700 nM
Cc1cc(CCC(=O)O)nn1Cc1cc(Cl)ccc1OCC1(C(F)(F)F)CCCC1 [Example 37, 3-[1-(5-Chloro-2-(1-trifluoromethylcyclopentylmethoxy)benzyl)-5-methyl-1H-pyrazol-3-yl]-propionic acid]	180 nM	160 nM	1000 nM	400 nM	1900 nM
CCC(CC)COc1ccc(F)cc1Cn1nc(CCC(=O)O)cc1C [Example 47, 3-[1-[2-(2-Ethyl-butoxy)-5-fluoro-benzyl]-5-methyl-1H-pyrazol-3-yl]-propionic acid]	370 nM	100 nM	2300 nM	240 nM	400 nM
CCC(C)(CC)COc1ccc(Br)cc1Cn1nc(CCC(=O)O)cc1C [Example 11, 3-{1-[5-Bromo-2-(2-ethyl-2-methyl-butoxy)-benzyl]-5-methyl-1H-pyrazol-3-yl}-propionic acid]	36 nM	25 nM	110 nM	380 nM	430 nM
CCC(CC)COc1ccccc1Cn1nc(CC(C)C(=O)O)cc1C (racemic) [Example 69, 3-{1-[2-(2-ethyl-butoxy)-benzyl]-5-methyl-1H-pyrazol-3-yl}-2-methyl-propionic acid]	180 nM	300 nM	2500 nM	700 nM	600 nM
